Patent publication US20220110924A1, “METHODS AND COMPOSITIONS FOR GENETIC MODULATION OF TUMOR MICROENVIRONMENTS” (HUYABIO International, LLC, priority 2020, published 2022)

Legend:
[1] = tested on: RR/PTCL; conditions: RR/PTCL historical benchmark, cited from earlier work
[2] = tested on: MC38 tumors; assay: NanoString nCounter PanCancer Immune Profiling Panel gene expression; format: in vivo, C57BL/6 mice
Experimental: Gene expression studies were carried out using excised MC38 tumors (n=20 animals/treatment) isolated from syngeneic C57BL/6 mice treated for 7, 14, or 17 days with HBI-8000 (50 mg/kg, daily), anti-PD-1 (10 mg/kg, biweekly), or the combination of HBI-8000+anti-PD-1 (50 mg/kg, daily, 10 mg/kg, biweekly). At study termination, tumor samples from the treated mice were collected and fixed in formalin for 24 h and transferred to EtOH, followed by the preparation of formalin-fixed paraffin embedded blocks. Tumor sections (5-10 μm) were prepared from the formalin-fixed paraffin-embedded blocks, and total RNA was isolated from tissue scraped from 4 to 6 slides using the protocol recommended by NanoString Technologies (Seattle, Wash.). The nCounter PanCancer Immune Profiling panel developed and provided by NanoString Technologies was initially selected for expression analyses with an additional 20 genes added as a Panel Plus Codeset. The additional genes were predicted to be regulated by HBI-8000+/−ICI treatment. The nCounter assays were performed according to the manufacturer's instructions using the nCounter FLEX system.
Gene expression data were analyzed using nSolver software provided by NanoString Technologies, Inc. Raw data were normalized to the geometric mean values of the internal synthetic positive controls and geometric means of the housekeeping genes, as recommended by the manufacturer. The NanoString Technologies' nSolver Analysis Software 4.0 generated cell type scores, pathway scores, heatmaps, and individual gene normalized data from the nCounter PanCancer Immune Profiling Panel Plus dataset. The cell type score quantifies cell populations using marker genes for given cell types; by centering the mean at 0 for each cell type, immune cell type abundance can be compared on the same scale. The same method was used to generate immune-relevant pathway scores; summarizing the data from multiple genes in a pathway into a single score allowed for comparison between treatments for pathway analysis.
Normalized gene expression data for individual genes was exported from nSolver, annotated with percent of tumor growth inhibition (% TGI), and then imported into GraphPad Prism 7.04.
To investigate the mechanism of action of HBI-8000 in combination therapy with ICIs, larger groups of mice (n=20/group) were implanted with MC38 tumors to sufficiently power the statistical analysis. A baseline no-treatment tumor-bearing group was killed 1 day before initiating treatment. Mice in each treatment arm (n=20) were killed at days 7, 14, and 17 post treatment initiation. The NanoString nCounter PanCancer Immune Profiling Panel analysis allows for clustering of immune response-related genes into “gene sets” comprising a collection of genes selected as being representative of an element of the immune response (i.e., cell type, pathway), and provides a high level view of the antitumor response, which is depicted as scatterplots in FIG. 9A. While all the scores were elevated in the PD-1 Ab plus HBI-8000 combination agent cohorts, it is noteworthy that a subset of cell type scores was augmented by either PD-1 Ab or HBI-8000 alone as early as day 7.

[3] = tested on: MC38 tumors; assay: model of PD-1 antibody failure or stable disease, second-line therapy; format: in vivo; conditions: second-line therapy in mice failing PD-1 Ab therapy, n=10/group, end of study
Experimental: To establish a model of PD-1 antibody failure or stable disease, 150 mice were initially treated biweekly for 3 weeks with first-line anti-PD-1 Ab (5 mg/kg, intraperitoneal administration).
Human cancer patients receiving ICI therapy often experience a transient response or stable disease, but eventually develop resistance and progress, a challenge to which major efforts are directed. […] To explore the effect of HBI-8000 plus ICI on acquired resistance, we developed a model based on the repeated observations that tumor-bearing mice treated initially (first-line) with single agent PD-1 Ab or PD-L1 Ab display […] patterns of growth: approximately 20% experience rapid progression, approximately 20% experience complete regression, and approximately 60% experience stable tumor growth (defined as 3 consecutive tumor volume measurements with no significant change) or slow progression (relative to rapid growth and progression), which somewhat approximates the clinical situation. Using the above model, we treated a large cohort of tumor-bearing mice with PD-1 Ab alone. Once they reached the criteria for stable disease or slow progression, they were randomized into 6 treatment arms as indicated in FIG. 13. We compared the effect of halting treatment (Vehicle), continuing to treat with PD-1 Ab, or continuing PD-1 Ab in combination with HBI-8000. […]

[4] = tolerability, treatment related adverse events (Example 4); format: in vivo, human
Experimental: The tolerability of the compounds of formula I, nivolumab, and a combination of the compounds of formula I and nivolumab were tested. The Phase 2 clinical dosage of 30 mg BIW of the compounds of formula I was administered.

[5] = tested on: RR/ATL; conditions: cited from earlier work; for ORR: RR/ATL historical benchmark

## Nc1cc(F)ccc1NC(=O)c1ccc(CNC(=O)/C=C/c2cccnc2)cc1 [Epidaza (China)]
[1]; value in brackets (PMS)
  ORR (PMS): 35%
[1]
  ORR: 28%

## O=c1[nH]cnc2c([C@@H]3N[C@H](CO)[C@@H](O)[C@H]3O)c[nH]c12 [Forodesine]
[1]
  ORR: 22%

## Nc1cc(F)ccc1NC(=O)c1ccc(CNC(=O)/C=C/c2cccnc2)cc1 [HBI-8000, N-(2-amino-4-fluorophenyl)-4-[[[(2E)-1-oxo-3-(3-pyridinyl)-2-propen-1-yl]amino]methyl]benzamide]
[2]; as early as day 7
  cell type scores corresponding to dendritic cells, macrophages, NK cells, cytotoxic cells, and CD45 cells: augmented
[2]; day 17, vs. Control
  directed global significance score, Adaptive: 2
  directed global significance score, Adhesion: 2
  directed global significance score, Antigen processing: 1.8
  directed global significance score, Apoptosis: 1.8
  directed global significance score, B cell Functions: 1.5
  directed global significance score, Basic Cell Function: 1.5
  directed global significance score, CD molecules: 1.7
  directed global significance score, Cancer progression: 1.8
  directed global significance score, Cell cycle: 1.5
  directed global significance score, Chemokine and Receptors: 1.5
  directed global significance score, Class I MHC mediated antigen process: 1.5
  directed global significance score, Complement pathway: 0
  directed global significance score, Costimulation by the CD28 family: 1
  directed global significance score, Cytokines and Receptors: 1.8
  directed global significance score, Dendritic cell Functions: 1.8
  directed global significance score, Humoral: 1.8
  directed global significance score, Inflammation: 1.8
  directed global significance score, Innate: 1.8
  directed global significance score, Interferon: 1.5
  directed global significance score, Interleukin: 1.5
  directed global significance score, Leukocyte Function: 1.8
  directed global significance score, MHC: 1.8
  directed global significance score, MHC class II antigen presentation: 1.8
  directed global significance score, Macrophage function: 1.8
  directed global significance score, Microglial Functions: 3
  directed global significance score, NK cell Function: 1.5
  directed global significance score, Pathogen Receptors: 1.3
  directed global significance score, Senescence: 1.3
  directed global significance score, T-cell Functions: 1.5
  directed global significance score, TLR: 1.5
  directed global significance score, TNF superfamily: 1.5
  directed global significance score, Transporter Function: 1.8
[3]
  complete response (tumor regression): 2 mice
  partial response: 3 mice
[4]; 63 subjects with AE data
  share of TRAEs associated with the agent: 39%
[4]; G1-2
  Anemia, TRAE: 14 (22) n (% of N)
  Diarrhea, TRAE: 0 n (% of N)
  Fatigue, TRAE: 0 n (% of N)
  Hypophospatemia, TRAE: 6 (10) n (% of N)
  Lymphocyte decrease, TRAE: 0 n (% of N)
  Neutrophil decrease, TRAE: 8 (13) n (% of N)
  Platelet decrease, TRAE: 23 (37) n (% of N)
  WBC decrease, TRAE: 11 (17) n (% of N)
[4]; G3
  Anemia, TRAE: 1 (2) n (% of N)
  Diarrhea, TRAE: 0 n (% of N)
  Fatigue, TRAE: 0 n (% of N)
  Hypophospatemia, TRAE: 4 (6) n (% of N)
  Lymphocyte decrease, TRAE: 0 n (% of N)
  Neutrophil decrease, TRAE: 5 (8) n (% of N)
  Platelet decrease, TRAE: 3 (5) n (% of N)
  WBC decrease, TRAE: 1 (2) n (% of N)
[4]; G4
  Anemia, TRAE: 0 n (% of N)
  Diarrhea, TRAE: 0 n (% of N)
  Fatigue, TRAE: 0 n (% of N)
  Hypophospatemia, TRAE: 0 n (% of N)
  Lymphocyte decrease, TRAE: 0 n (% of N)
  Neutrophil decrease, TRAE: 1 (2) n (% of N)
  Platelet decrease, TRAE: 0 n (% of N)
  WBC decrease, TRAE: 0 n (% of N)

## Nc1cccc2c1CN(C1CCC(=O)NC1=O)C2=O (centres unmarked) [Lenalidomide]
[5]
  ORR: 42%
[5]; RR/ATL patients who had received mogamulizumab
  ORR in moga patients: 18%

## C#CCC(Cc1cnc2nc(N)nc(N)c2n1)c1ccc(C(=O)N[C@@H](CCC(=O)O)C(=O)O)cc1 (some centres unmarked) [Pralatrexate]
[1]
  ORR: 45%

## NIVO: fully human monoclonal antibody directed against PD-1
[4]; G1-2
  Anemia, TRAE: 0 n (% of N)
  Diarrhea, TRAE: 4 (6) n (% of N)
  Fatigue, TRAE: 0 n (% of N)
  Hypophospatemia, TRAE: 0 n (% of N)
  Lymphocyte decrease, TRAE: 0 n (% of N)
  Neutrophil decrease, TRAE: 0 n (% of N)
  Platelet decrease, TRAE: 0 n (% of N)
  WBC decrease, TRAE: 0 n (% of N)
[4]; G3
  Anemia, TRAE: 0 n (% of N)
  Diarrhea, TRAE: 1 (2) n (% of N)
  Fatigue, TRAE: 0 n (% of N)
  Hypophospatemia, TRAE: 0 n (% of N)
  Lymphocyte decrease, TRAE: 0 n (% of N)
  Neutrophil decrease, TRAE: 0 n (% of N)
  Platelet decrease, TRAE: 0 n (% of N)
  WBC decrease, TRAE: 0 n (% of N)
[4]; G4
  Anemia, TRAE: 0 n (% of N)
  Diarrhea, TRAE: 0 n (% of N)
  Fatigue, TRAE: 0 n (% of N)
  Hypophospatemia, TRAE: 0 n (% of N)
  Lymphocyte decrease, TRAE: 0 n (% of N)
  Neutrophil decrease, TRAE: 0 n (% of N)
  Platelet decrease, TRAE: 0 n (% of N)
  WBC decrease, TRAE: 0 n (% of N)
[4]; less frequent TRAEs
  TSH increase, TRAE: 5 n
  amylase increase, TRAE: 4 n
  lipase increase, TRAE: 6 n
  rash, TRAE: 10 n

B1: Mogamulizumab: RR/ATL treatment listed as historical benchmark (antibody, chains of the INN, looked up, V domains shown)
VH: EVQLVESGGDLVQPGRSLRLSCAASGFIFSNYGMSWVRQAPGKGLEWVATISSASTYSYYPDSVKGRFTISRDNAKNSLYLQMNSLRVEDTALYYCGRHSDGNFAFGYWGQGTLVTVSS
VL: DVLMTQSPLSLPVTPGEPASISCRSSRNIVHINGDTYLEWYLQKPGQSPQLLIYKVSNRFSGVPDRFSGSGSGTDFTLKISRVEAEDVGVYYCFQGSLLPWTFGQGTKVEIK
[5]
  ORR: 50%
